Molecular target: T1, MATE45^long (Arabidopsis thaliana, UniProt A0A1L2EGK5)
T1 construct: gene At1g71870; long splice form ORF cloned from wild-type seedling cDNA, in pDEST42, expressed in Escherichia coli acrB
T1 sequence (A0A1L2EGK5 1-510): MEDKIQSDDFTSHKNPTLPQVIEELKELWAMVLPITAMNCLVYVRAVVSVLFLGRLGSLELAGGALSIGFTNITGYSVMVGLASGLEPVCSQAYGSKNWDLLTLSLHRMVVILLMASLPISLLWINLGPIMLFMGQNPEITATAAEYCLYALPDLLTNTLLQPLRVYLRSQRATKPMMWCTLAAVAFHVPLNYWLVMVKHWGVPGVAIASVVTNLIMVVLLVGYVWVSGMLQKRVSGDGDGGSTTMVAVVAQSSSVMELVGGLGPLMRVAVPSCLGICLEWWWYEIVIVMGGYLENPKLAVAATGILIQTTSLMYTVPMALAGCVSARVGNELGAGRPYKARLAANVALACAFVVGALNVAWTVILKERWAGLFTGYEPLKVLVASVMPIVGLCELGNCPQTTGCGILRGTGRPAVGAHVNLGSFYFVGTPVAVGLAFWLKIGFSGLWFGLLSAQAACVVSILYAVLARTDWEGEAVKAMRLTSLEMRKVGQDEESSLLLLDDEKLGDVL
Assay: uptake into E. coli acrB cells, LC-MS MRM
Type: cell-based
Conditions: 0.5 uM (+)-ABA, 30 min; Venus fluorescent protein as control

## CC1=CC(=O)CC(C)(C)C1(O)/C=C/C(C)=C\C(=O)O (stereo in doubt) [(+)-ABA, (+)‐ABA]
  rate of (+)-ABA uptake: significantly higher rates of ABA uptake into E. coli cells expressing MATE45^long compared to the control
